Like-named read-outs stand apart in the source and are kept apart here.
Experiments:
Type in all cases: cell-based
[1] = system: rat primary tumors, histocultures; assay: Drug effect in histocultures of rat primary tumors (inhibition of 3H-thymidine incorporation); conditions: Histocultures, Primary, 96 hours, read-out: Concentration producing 50% inhibition
[2] = system: rat primary tumor cells, monolayers; assay: Drug effect in monolayers of rat primary tumor cells (inhibition of bromodeoxyuridine incorporation); conditions: 96 h, read-out: Concentration producing 50% inhibition
[3] = system: rat lymph node metastasis cells, monolayers; assay: Drug effect in monolayers of rat lymph node metastasis cells (inhibition of bromodeoxyuridine incorporation); conditions: 96 h, read-out: Concentration producing 50% inhibition
[4] = system: rat lung metastasis cells, monolayers; assay: Drug effect in monolayers of rat lung metastasis cells (inhibition of bromodeoxyuridine incorporation); conditions: 96 h, read-out: Concentration producing 50% inhibition
[5] = system: Human prostate PC3 tumor cells; assay: aFGF/bFGF-induced resistance and reversal by suramin, sulforhodamine B assay
Procedure: The experimental conditions are described briefly below. […] Cell number was measured using the sulforhodamine B assay which measures the total protein concentration. […] The FGF-induced resistance was dependent on the FGF concentrations, with a higher resistance at higher FGF concentrations.

[6] = system: Human breast BC19 (subline of MCF7 transfected with mdr1); assay: FGF-induced resistance, inhibition of BrdU incorporation; conditions: read-out: Drug concentration needed to produce 50% inhibition
Procedure: (§1) Prior to drug treatment, cells were incubated for 4 days with tumor CM or with r-aFGF ad/or r-bFGF-containing medium, supplemented with 1% FBS (final protein concentration adjusted to 2 mg/ml). The medium was renewed every other day.
(§2) The antiproliferative drug effect in histocultures was measured as inhibition of ^3H-thymidine incorporation quantified by autoradiography (Yen, W. C. et al. (1996) Pharm. Res. 13:1305-1312) and, for monolayers, as inhibition of BrdU incorporation or as reduction of total proteins by the sulforhodamine B assay (Au, J. L.-S. et al. (1998) Cancer Res. 58:2141-2148). For the latter, the two assays yielded qualitatively similar results. Cell kill induced by 96-hour drug treatment was monitored by the release of LDH into the culture medium. LDH activity was monitored by the conversion of tetrazolium to formazan (detected at 490 nm).
(§3) The experimental conditions are described briefly below. Cells were pretreated with human recombinant r-aFGF and/or r-bFGF for 96 hours and then with drugs for 96 hours. For the studies on cells derived from the human prostate, lung, pharynx, colon and breast cancer cells, the drug effect was determined by the inhibition of BrdU incorporation. For the study on the human leukemic cells, the drug effect was measured by the MTT assay, which measures the number of metabolically active cells (Alley, M. C. et al (1988) Cancer Res 48:589-601).

Human breast MCF7 = assay: as above; conditions: read-out: Drug concentration needed to produce 50% inhibition
Procedure: as §1, §2, §3

Human colon HT-29 = assay: as above; conditions: read-out: Drug concentration needed to produce 50% inhibition
Procedure: as §1, §2, §3

Human lung A459 = assay: as above; conditions: read-out: Drug concentration needed to produce 50% inhibition
Procedure: as §1, §2, §3

Human pharynx FaDu = assay: as above; conditions: read-out: Drug concentration needed to produce 50% inhibition
Procedure: as §1, §2, §3

Human prostate PC3 = assay: as above; conditions: Homo sapiens, read-out: Drug concentration needed to produce 50% inhibition
Procedure: as §1, §2, §3

Rat prostate MAT-LyLu = assay: as above; conditions: read-out: Drug concentration needed to produce 50% inhibition
Procedure: as §1, §2, §3

[7] = no suramin, relative to control
[8] = 96 h, r-aFGF + r-bFGF 0.04 ± 1 ng/ml
[9] = 96 h, r-aFGF + r-bFGF 0.08 ± 1 ng/ml
[10] = 96 h, r-aFGF + r-bFGF 0.32 ± 1 ng/ml
[11] = 96 h, r-aFGF + r-bFGF 0.64 ± 1 ng/ml
[12] = 96 h, r-aFGF + r-bFGF 1 ± 1 ng/ml

Work on `COc1cccc2c1C(=O)c1c(O)c3c(c(O)c1C2=O)C[C@@](O)(C(=O)CO)C[C@@H]3O[C@H]1C[C@H](N)[C@H](O)[C@H](C)O1` [Doxorubicin] yielded an IC50 [1] of 18 ± 11 nM, an IC50 ([2]; Monolayers (passage 0)) of 8 ± 0.5 nM and an IC50 ([2]; Monolayers (passage 1)) of 8.6 ± 0.5 nM. The IC50 ([2]; Monolayers (passage 2)) was 8 ± 0.4 nM, the IC50 ([2]; Monolayers (passage 3)) was 8 ± 0.2 nM and the IC50 ([3]; Monolayers (passage 0)) was 31 ± 2.3 nM. The IC50 ([3]; Monolayers (passage 1)) was 17.9 ± 1.2 nM, the IC50 ([3]; Monolayers (passage 2)) was 11 ± 0.4 nM and the IC50 ([3]; Monolayers (passage 3)) was 7.8 ± 0.5 nM. It also gave an IC50 ([4]; Monolayers (passage 0)) of 77 ± 2.9 nM, an IC50 ([4]; Monolayers (passage 1)) of 31.7 ± 8.9 nM and an IC50 ([4]; Monolayers (passage 2)) of 16.6 ± 1 nM. It also gave an IC50 ([4]; Monolayers (passage 3)) of 8 ± 0.5 nM, an IC50 ([5]; Homo sapiens, read-out: IC50, Control (drug treatment only, without FGF treatment), No suramin, drug 96 hours) of 27.8 nM and an IC50 ([5]; Homo sapiens, read-out: IC50, aFGF 0.3 ng/ml + bFGF 1 ng/ml, No suramin, FGF pretreatment 96 hours, drug 96 hours) of 145 nM. For the same compound, the IC50 ([5]; Homo sapiens, read-out: IC50, aFGF 1 ng/ml + bFGF 3 ng/ml, No suramin, FGF pretreatment 96 hours, drug 96 hours) was 281 nM, the “Resistance, Folds, aFGF 0.3 ng/ml + bFGF 1 ng/ml” value [5, 7] was 5.23 Folds and the “Resistance, Folds, aFGF 1 ng/ml + bFGF 3 ng/ml” value [5, 7] was 10.11 Folds. The IC50 ([5]; read-out: IC50, Control (without FGF treatment), Suramin, 15 μM, drug 96 hours with 15 μM suramin) was 35.9 nM, the IC50 ([5]; read-out: IC50, aFGF 0.3 ng/ml + bFGF 1 ng/ml, With suramin, FGF pretreatment 96 hours, drug 96 hours with 15 micromolar suramin) was 29.8 nM and the IC50 ([5]; read-out: IC50, aFGF 1 ng/ml + bFGF 3 ng/ml, With suramin, FGF pretreatment 96 hours, drug 96 hours with 15 micromolar suramin) was 27.9 nM. The IC50 ([6]; r-bFGF 0 ng/ml) was 128 nM, the IC50 ([6]; r-bFGF 0.01 ng/ml) was 150 nM and the IC50 ([6]; r-bFGF 0.1 ng/ml) was 270 nM. For the same compound, the IC50 ([6]; r-bFGF 1 ng/ml) was 407 nM, the IC50 (Human breast MCF7; MCF7, r-bFGF 0 ng/ml) was 16.9 nM and the IC50 (Human breast MCF7; MCF7, r-bFGF 0.01 ng/ml) was 21.3 nM. The IC50 (Human breast MCF7; MCF7, r-bFGF 0.1 ng/ml) was 37.6 nM, the IC50 (Human breast MCF7; MCF7, r-bFGF 1 ng/ml) was 595 nM and the IC50 (Human colon HT-29; HT-29, 96 h, r-aFGF + r-bFGF 0 ng/ml) was 30.2 nM. For the same compound, the IC50 (Human colon HT-29; HT-29, 96 h, r-aFGF + r-bFGF 0.04 ± 1 ng/ml) was 29.1 nM, the IC50 (Human colon HT-29; HT-29, 96 h, r-aFGF + r-bFGF 0.08 ± 1 ng/ml) was 30 nM and the IC50 (Human colon HT-29; HT-29, 96 h, r-aFGF + r-bFGF 0.16 ± 1 ng/ml) was 30.5 nM. It also gave an IC50 (Human colon HT-29; HT-29, 96 h, r-aFGF + r-bFGF 0.32 ± 1 ng/ml) of 48.1 nM, an IC50 (Human colon HT-29; HT-29, 96 h, r-aFGF + r-bFGF 0.64 ± 1 ng/ml) of 72.7 nM and an IC50 (Human colon HT-29; HT-29, 96 h, r-aFGF + r-bFGF 1 ± 1 ng/ml) of 131 nM. It also gave an IC50 (Human colon HT-29; HT-29, r-aFGF 0 ng/ml) of 30.2 nM, an IC50 (Human colon HT-29; HT-29, r-aFGF 1 ng/ml) of 32.1 nM and an IC50 (Human colon HT-29; HT-29, r-aFGF 10 ng/ml) of 30.3 nM. For the same compound, the IC50 (Human colon HT-29; HT-29, r-aFGF 50 ng/ml) was 30 nM, the IC50 (Human colon HT-29; HT-29, r-bFGF 0 ng/ml) was 24.1 nM and the IC50 (Human colon HT-29; HT-29, r-bFGF 1 ng/ml) was 24.4 nM. The IC50 (Human colon HT-29; HT-29, r-bFGF 10 ng/ml) was 24.5 nM, the IC50 (Human colon HT-29; HT-29, r-bFGF 50 ng/ml) was 26.1 nM and the IC50 (Human lung A459; A459, 96 h, r-aFGF + r-bFGF 0 ng/ml) was 122 nM. The IC50 (Human lung A459; A459, 96 h, r-aFGF + r-bFGF 0.04 ± 1 ng/ml) was 118 nM, the IC50 (Human lung A459; A459, 96 h, r-aFGF + r-bFGF 0.08 ± 1 ng/ml) was 159 nM and the IC50 (Human lung A459; A459, 96 h, r-aFGF + r-bFGF 0.16 ± 1 ng/ml) was 238 nM. It also gave an IC50 (Human lung A459; A459, 96 h, r-aFGF + r-bFGF 0.32 ± 1 ng/ml) of 309 nM, an IC50 (Human lung A459; A459, 96 h, r-aFGF + r-bFGF 0.64 ± 1 ng/ml) of 386 nM and an IC50 (Human lung A459; A459, 96 h, r-aFGF + r-bFGF 1 ± 1 ng/ml) of 582 nM. The IC50 (Human lung A459; A459, r-aFGF 0 ng/ml) was 122 nM, the IC50 (Human lung A459; A459, r-aFGF 1 ng/ml) was 120 nM and the IC50 (Human lung A459; A459, r-aFGF 10 ng/ml) was 123 nM. It also gave an IC50 (Human lung A459; A459, r-aFGF 50 ng/ml) of 118 nM, an IC50 (Human lung A459; A459, r-bFGF 0 ng/ml) of 119 nM and an IC50 (Human lung A459; A459, r-bFGF 1 ng/ml) of 118 nM. For the same compound, the IC50 (Human lung A459; A459, r-bFGF 10 ng/ml) was 238 nM, the IC50 (Human lung A459; A459, r-bFGF 50 ng/ml) was 285 nM and the IC50 (Human pharynx FaDu; 96 h, r-aFGF + r-bFGF 0 ng/ml) was 13.5 nM. It also gave an IC50 (Human pharynx FaDu; [8]) of 13.5 nM, an IC50 (Human pharynx FaDu; [9]) of 14 nM and an IC50 (Human pharynx FaDu; 96 h, r-aFGF + r-bFGF 0.16 ± 1 ng/ml) of 13.7 nM. It also gave an IC50 (Human pharynx FaDu; [10]) of 14.1 nM, an IC50 (Human pharynx FaDu; [11]) of 27.5 nM and an IC50 (Human pharynx FaDu; [12]) of 54 nM. For the same compound, the IC50 (Human pharynx FaDu; r-aFGF 0 ng/ml) was 13.5 nM, the IC50 (Human pharynx FaDu; r-aFGF 1 ng/ml) was 13 nM and the IC50 (Human pharynx FaDu; r-aFGF 10 ng/ml) was 13.7 nM. It also gave an IC50 (Human pharynx FaDu; r-aFGF 50 ng/ml) of 14 nM, an IC50 (Human pharynx FaDu; r-bFGF 0 ng/ml) of 14.2 nM and an IC50 (Human pharynx FaDu; r-bFGF 1 ng/ml) of 13.9 nM. For the same compound, the IC50 (Human pharynx FaDu; r-bFGF 10 ng/ml) was 14.1 nM, the IC50 (Human pharynx FaDu; r-bFGF 50 ng/ml) was 13.7 nM and the IC50 (Human prostate PC3; 96 h, r-aFGF + r-bFGF 0 ng/ml) was 8.2 nM. The IC50 (Human prostate PC3; [8]) was 8.5 nM, the IC50 (Human prostate PC3; [9]) was 15.2 nM and the IC50 (Human prostate PC3; [10]) was 62.2 nM. For the same compound, the IC50 (Human prostate PC3; [11]) was 84.8 nM, the IC50 (Human prostate PC3; [12]) was 107 nM and the IC50 (Human prostate PC3; 96 h, r-aFGF + r-bFGF) was 35.3 nM. The IC50 (Human prostate PC3; r-aFGF 0 ng/ml) was 8.2 nM, the IC50 (Human prostate PC3; r-aFGF 1 ng/ml) was 8.3 nM and the IC50 (Human prostate PC3; r-aFGF 10 ng/ml) was 8.1 nM. It also gave an IC50 (Human prostate PC3; r-aFGF 50 ng/ml) of 8.4 nM, an IC50 (Human prostate PC3; r-bFGF 0 ng/ml) of 8.1 nM and an IC50 (Human prostate PC3; r-bFGF 1 ng/ml) of 8.51 nM. It also gave an IC50 (Human prostate PC3; r-bFGF 10 ng/ml) of 23.8 nM, an IC50 (Human prostate PC3; r-bFGF 50 ng/ml) of 50.8 nM and an IC50 (Rat prostate MAT-LyLu; r-bFGF 0 ng/ml) of 10.3 nM. It also gave an IC50 (Rat prostate MAT-LyLu; r-bFGF 1 ng/ml) of 18.3 nM, an IC50 (Rat prostate MAT-LyLu; r-bFGF 10 ng/ml) of 540 nM and an IC50 (Rat prostate MAT-LyLu; r-bFGF 50 ng/ml) of 238 nM.
